{
  "source": "paper PMC5218480",
  "about": "(PLoS ONE, 2017)",
  "system": "MV-4-11 cells",
  "test": "Gene expression microarray analysis (Affymetrix PrimeView) and GSEA",
  "assay_type": "cell-based, human",
  "design": "RFU PODN (11730768_x_at) / Fold change /veh PODN (11730768_x_at) / RFU LINC00158 (11744669_a_at) / Fold change /veh LINC00158 (11744669_a_at) / RFU DUSP10 (11751237_a_at) / Fold change /veh DUSP10 (11751237_a_at) / RFU ID3 (11757404_x_at) / Fold change /veh ID3 (11757404_x_at) / RFU PLEKHG5 (11737974_s_at) / Fold change /veh PLEKHG5 (11737974_s_at) / RFU LRRC4B (11730491_at) / Fold change /veh LRRC4B (11730491_at) / RFU GIMAP4 (11747438_a_at) / Fold change /veh GIMAP4 (11747438_a_at) / RFU KRT8 (11758183_x_at) / Fold change /veh KRT8 (11758183_x_at) / RFU CNN1 (11734310_a_at) / Fold change /veh CNN1 (11734310_a_at) / RFU VPS37D (11726825_at) / Fold change /veh VPS37D (11726825_at) / RFU C10orf10 (11716522_x_at) / Fold change /veh C10orf10 (11716522_x_at) / RFU KIR2DL2 /// KIR2DL4 /// KIR2DL5A /// KIR2DL5B /// KIR2DS1 /// KIR2DS2 /// KIR2DS3 /// KIR2DS4 /// KIR3DL3 /// KIR3DL3 /// KIR3DS1 (11738374_at) / Fold change /veh KIR2DL2 /// KIR2DL4 /// KIR2DL5A /// KIR2DL5B /// KIR2DS1 /// KIR2DS2 /// KIR2DS3 /// KIR2DS4 /// KIR3DL3 /// KIR3DL3 /// KIR3DS1 (11738374_at) / RFU C1QL1 (11718748_at) / Fold change /veh C1QL1 (11718748_at) / RFU TMPRSS4 (11747572_a_at) / Fold change /veh TMPRSS4 (11747572_a_at) / RFU HAMP (11756126_x_at) / Fold change /veh HAMP (11756126_x_at) / RFU RNFT2 (11725882_a_at) / Fold change /veh RNFT2 (11725882_a_at) / RFU NR4A2 (11747474_a_at) / Fold change /veh NR4A2 (11747474_a_at) / RFU ABCC12 (11746883_a_at) / Fold change /veh ABCC12 (11746883_a_at) / RFU TMEM136 (11760407_x_at) / Fold change /veh TMEM136 (11760407_x_at) / RFU CLDN22 /// WWC2 (11732394_at) / Fold change /veh CLDN22 /// WWC2 (11732394_at) / RFU HLA-DPB1 (11760878_x_at) / Fold change /veh HLA-DPB1 (11760878_x_at) / RFU SPINT1 (11716480_a_at) / Fold change /veh SPINT1 (11716480_a_at) / RFU GAP43 (11754022_s_at) / Fold change /veh GAP43 (11754022_s_at) / RFU A4GNT (11735810_at) / Fold change /veh A4GNT (11735810_at) / RFU PRB3 (11715151_x_at) / Fold change /veh PRB3 (11715151_x_at) / RFU TUBB4B (11761932_at) / Fold change /veh TUBB4B (11761932_at) / RFU CAPN14 (11732068_a_at) / Fold change /veh CAPN14 (11732068_a_at) / RFU TMCC2 (11721928_a_at) / Fold change /veh TMCC2 (11721928_a_at) / RFU IRGQ (11745062_a_at) / Fold change /veh IRGQ (11745062_a_at) / RFU FAM174B (11720279_a_at) / Fold change /veh FAM174B (11720279_a_at) / RFU TMPRSS4 (11748680_a_at) / Fold change /veh TMPRSS4 (11748680_a_at) / RFU FAM212B (11763350_a_at) / Fold change /veh FAM212B (11763350_a_at) / RFU PLEKHG5 (11743358_a_at) / Fold change /veh PLEKHG5 (11743358_a_at) / RFU ZSCAN30 (11745921_a_at) / Fold change /veh ZSCAN30 (11745921_a_at) / RFU CMKLR1 (11741424_a_at) / Fold change /veh CMKLR1 (11741424_a_at) / RFU LOC101060620 /// MAPK8IP1 (11723275_at) / Fold change /veh LOC101060620 /// MAPK8IP1 (11723275_at) / RFU SPTSSB (11747773_x_at) / Fold change /veh SPTSSB (11747773_x_at) / RFU PRSS12 (11739890_at) / Fold change /veh PRSS12 (11739890_at) / RFU BIN1 (11741810_x_at) / Fold change /veh BIN1 (11741810_x_at) / RFU WNT11 (11732464_a_at) / Fold change /veh WNT11 (11732464_a_at) / RFU C10orf10 (11716521_a_at) / Fold change /veh C10orf10 (11716521_a_at) / RFU C5orf56 (11738089_at) / Fold change /veh C5orf56 (11738089_at) / RFU CYB561 (11721691_x_at) / Fold change /veh CYB561 (11721691_x_at) / RFU ANKRD19P (11752326_a_at) / Fold change /veh ANKRD19P (11752326_a_at) / RFU OR2T12 /// OR2T33 /// OR2T8 (11738714_s_at) / Fold change /veh OR2T12 /// OR2T33 /// OR2T8 (11738714_s_at) / RFU VCAN (11748164_a_at) / Fold change /veh VCAN (11748164_a_at) / RFU JSRP1 (11732532_at) / Fold change /veh JSRP1 (11732532_at) / RFU KRTAP10-11 (11738290_x_at) / Fold change /veh KRTAP10-11 (11738290_x_at) / RFU MYO3A (11730013_a_at) / Fold change /veh MYO3A (11730013_a_at) / RFU EBF3 (11725865_a_at) / Fold change /veh EBF3 (11725865_a_at) / RFU CAMK2N1 (11719241_x_at) / Fold change /veh CAMK2N1 (11719241_x_at) / RFU C5orf56 (11738088_a_at) / Fold change /veh C5orf56 (11738088_a_at) / RFU OLFML3 (11715873_a_at) / Fold change /veh OLFML3 (11715873_a_at) / RFU LOC100653217 /// NTM (11731650_a_at) / Fold change /veh LOC100653217 /// NTM (11731650_a_at) / RFU MAPK11 (11762145_a_at) / Fold change /veh MAPK11 (11762145_a_at) / RFU FIZ1 (11724087_x_at) / Fold change /veh FIZ1 (11724087_x_at) / RFU OASL (11726364_x_at) / Fold change /veh OASL (11726364_x_at) / RFU SOX15 (11748057_x_at) / Fold change /veh SOX15 (11748057_x_at) / RFU CD79A (11719716_a_at) / Fold change /veh CD79A (11719716_a_at) / RFU HIST1H1D (11736915_at) / Fold change /veh HIST1H1D (11736915_at) / RFU CASKIN2 (11723855_a_at) / Fold change /veh CASKIN2 (11723855_a_at) / RFU LOC730098 (11760151_x_at) / Fold change /veh LOC730098 (11760151_x_at) / RFU OR4N2 (11742367_at) / Fold change /veh OR4N2 (11742367_at) / RFU PRRT2 (11749266_a_at) / Fold change /veh PRRT2 (11749266_a_at) / RFU SNX32 (11753110_a_at) / Fold change /veh SNX32 (11753110_a_at) / RFU CDHR5 (11726645_a_at) / Fold change /veh CDHR5 (11726645_a_at) / RFU RCAN1 (11760418_a_at) / Fold change /veh RCAN1 (11760418_a_at) / RFU FAM167A (11723789_a_at) / Fold change /veh FAM167A (11723789_a_at) / RFU FAM26E (11764081_at) / Fold change /veh FAM26E (11764081_at) / RFU ISYNA1 (11749810_s_at) / Fold change /veh ISYNA1 (11749810_s_at) / RFU ACY1 (11761880_at) / Fold change /veh ACY1 (11761880_at) / RFU 11764098_at / Fold change /veh 11764098_at / RFU SAMD14 (11745864_x_at) / Fold change /veh SAMD14 (11745864_x_at) / RFU NPB (11741838_a_at) / Fold change /veh NPB (11741838_a_at) / RFU TMPRSS6 (11731388_a_at) / Fold change /veh TMPRSS6 (11731388_a_at) / RFU KRTAP10-2 (11738614_at) / Fold change /veh KRTAP10-2 (11738614_at) / RFU ARHGAP8 /// PRR5-ARHGAP8 (11727945_x_at) / Fold change /veh ARHGAP8 /// PRR5-ARHGAP8 (11727945_x_at) / RFU KRTAP5-7 /// NADSYN1 (11734609_at) / Fold change /veh KRTAP5-7 /// NADSYN1 (11734609_at) / RFU RASL12 (11751679_a_at) / Fold change /veh RASL12 (11751679_a_at) / RFU CDKN2B (11736163_a_at) / Fold change /veh CDKN2B (11736163_a_at) / RFU PRF1 (11729649_at) / Fold change /veh PRF1 (11729649_at) / RFU, ZNF638 /// ZNF638-IT1 / Fold change vs veh, ZNF638 /// ZNF638-IT1 / RFU, PANK3 / Fold change vs veh, PANK3 / RFU, SH3YL1 / Fold change vs veh, SH3YL1 / RFU, ZEB2 / Fold change vs veh, ZEB2 / RFU, NRIP1 / Fold change vs veh, NRIP1 / RFU, PTTG1IP / Fold change vs veh, PTTG1IP / RFU, CAPN2 / Fold change vs veh, CAPN2 / RFU, MED14 / Fold change vs veh, MED14 / RFU, SNORA58 / Fold change vs veh, SNORA58 / RFU, C1orf63 / Fold change vs veh, C1orf63 / RFU, LRRFIP1 / Fold change vs veh, LRRFIP1 / RFU, NDUFAF7 / Fold change vs veh, NDUFAF7 / RFU, SLC12A2 / Fold change vs veh, SLC12A2 / RFU, IBTK / Fold change vs veh, IBTK / RFU, ESF1 / Fold change vs veh, ESF1 / Fold change vs veh, TMEM50B / RFU, TAOK1 / Fold change vs veh, TAOK1 / RFU, ACBD3 / Fold change vs veh, ACBD3 / RFU, TMA16 / Fold change vs veh, TMA16 / RFU, RWDD3 / Fold change vs veh, RWDD3 / RFU, BCAT1 / Fold change vs veh, BCAT1 / RFU, EDEM3 / Fold change vs veh, EDEM3 / RFU, TMEM33 / Fold change vs veh, TMEM33 / RFU, WDR75 / Fold change vs veh, WDR75 / RFU, AHCTF1 / Fold change vs veh, AHCTF1 / RFU, TFRC / Fold change vs veh, TFRC / RFU, ZDHHC17 / Fold change vs veh, ZDHHC17 / RFU, NOM1 / Fold change vs veh, NOM1 / RFU, ARL8B / Fold change vs veh, ARL8B / RFU, ZBTB11 / Fold change vs veh, ZBTB11 / RFU, TAMM41 / Fold change vs veh, TAMM41 / RFU, KIAA1704 /// LOC100996395 / Fold change vs veh, KIAA1704 /// LOC100996395 / RFU, ING1 / Fold change vs veh, ING1 / RFU, TRMT61B / Fold change vs veh, TRMT61B / RFU, FUBP3 / Fold change vs veh, FUBP3 / RFU, TP53 / Fold change vs veh, TP53 / RFU, TNKS2 / Fold change vs veh, TNKS2 / RFU, ZFP14 / Fold change vs veh, ZFP14 / RFU, ACTR2 / Fold change vs veh, ACTR2 / RFU, PPP3R1 / Fold change vs veh, PPP3R1 / RFU, PIK3R1 / Fold change vs veh, PIK3R1 / RFU, HNRNPA1 / Fold change vs veh, HNRNPA1 / RFU, RNF170 / Fold change vs veh, RNF170 / RFU, ZNF28 / Fold change vs veh, ZNF28 / RFU, RNGTT / Fold change vs veh, RNGTT / RFU, OGT / Fold change vs veh, OGT / RFU, BRD1 / Fold change vs veh, BRD1 / RFU, MARS / Fold change vs veh, MARS / RFU, ZNF655 / Fold change vs veh, ZNF655 / RFU, FAHD1 / Fold change vs veh, FAHD1 / RFU, BDP1 / Fold change vs veh, BDP1 / RFU, LRRCC1 / Fold change vs veh, LRRCC1 / RFU, ARID1A / Fold change vs veh, ARID1A / RFU, ZNF146 / Fold change vs veh, ZNF146 / RFU, ZNF330 / Fold change vs veh, ZNF330 / RFU, GPN3 / Fold change vs veh, GPN3 / RFU, C9orf123 / Fold change vs veh, C9orf123 / RFU, N4BP2L2 / Fold change vs veh, N4BP2L2 / RFU, ARFIP1 / Fold change vs veh, ARFIP1 / RFU, FAM179B / Fold change vs veh, FAM179B / RFU, BCL10 / Fold change vs veh, BCL10 / RFU, UHRF1BP1L / Fold change vs veh, UHRF1BP1L / RFU, BET1 / Fold change vs veh, BET1 / RFU, CNOT2 / Fold change vs veh, CNOT2 / RFU, ZNF268 / Fold change vs veh, ZNF268 / Fold change vs veh, ZNF507 / RFU, DGCR2 / Fold change vs veh, DGCR2 / RFU, WDSUB1 / Fold change vs veh, WDSUB1 / Fold change vs veh, HSP90B1 /// MIR3652 / RFU, ADSS / Fold change vs veh, ADSS / RFU, GK / Fold change vs veh, GK / RFU, ZNF148 / Fold change vs veh, ZNF148 / RFU, TAF9 / Fold change vs veh, TAF9 / RFU, SLC1A5 / Fold change vs veh, SLC1A5 / RFU, SLMO2 / Fold change vs veh, SLMO2 / RFU, ABCC4 / Fold change vs veh, ABCC4 / RFU, LOC101060439 /// RAP1B / Fold change vs veh, LOC101060439 /// RAP1B / RFU, RFX7 / Fold change vs veh, RFX7 / RFU, GTPBP10 / Fold change vs veh, GTPBP10 / RFU, CNEP1R1 / Fold change vs veh, CNEP1R1 / RFU, BIVM-ERCC5 /// ERCC5 / Fold change vs veh, BIVM-ERCC5 /// ERCC5 / RFU, ILF3 / Fold change vs veh, ILF3 / RFU 11762660_at / Fold change /veh 11762660_at / RFU VCAN (11757783_s_at) / Fold change /veh VCAN (11757783_s_at) / RFU DDX43 (11728927_at) / Fold change /veh DDX43 (11728927_at) / RFU KRT8 (11758188_x_at) / Fold change /veh KRT8 (11758188_x_at) / RFU NKD1 (11759106_at) / Fold change /veh NKD1 (11759106_at) / RFU SRD5A1 (11742802_a_at) / Fold change /veh SRD5A1 (11742802_a_at) / RFU TPSAB1 /// TPSB2 (11721975_s_at) / Fold change /veh TPSAB1 /// TPSB2 (11721975_s_at) / RFU GSTM3 (11746129_a_at) / Fold change /veh GSTM3 (11746129_a_at) / RFU IL23R (11737362_x_at) / Fold change /veh IL23R (11737362_x_at) / RFU TMEM51 (11727254_a_at) / Fold change /veh TMEM51 (11727254_a_at) / RFU PIWIL2 (11732686_x_at) / Fold change /veh PIWIL2 (11732686_x_at) / RFU ORM1 (11744905_x_at) / Fold change /veh ORM1 (11744905_x_at) / RFU CCDC152 (11743942_at) / Fold change /veh CCDC152 (11743942_at) / RFU ECM1 (11717891_a_at) / Fold change /veh ECM1 (11717891_a_at) / RFU IL23R (11748794_a_at) / Fold change /veh IL23R (11748794_a_at) / RFU TNFAIP8L3 (11732012_x_at) / Fold change /veh TNFAIP8L3 (11732012_x_at) / RFU MBOAT4 (11741988_at) / Fold change /veh MBOAT4 (11741988_at) / RFU 11764193_at / Fold change /veh 11764193_at / RFU TMEM53 (11763286_at) / Fold change /veh TMEM53 (11763286_at) / RFU MAGEB2 (11727129_at) / Fold change /veh MAGEB2 (11727129_at) / RFU TMEM200A (11744735_a_at) / Fold change /veh TMEM200A (11744735_a_at) / RFU CCDC152 (11751479_a_at) / Fold change /veh CCDC152 (11751479_a_at) / RFU FAM211A (11726209_a_at) / Fold change /veh FAM211A (11726209_a_at) / RFU RGS16 (11746705_a_at) / Fold change /veh RGS16 (11746705_a_at) / RFU VCAN (11755009_s_at) / Fold change /veh VCAN (11755009_s_at) / RFU RHOB (11743442_s_at) / Fold change /veh RHOB (11743442_s_at) / RFU RGS16 (11720943_a_at) / Fold change /veh RGS16 (11720943_a_at) / RFU RGS16 (11720944_at) / Fold change /veh RGS16 (11720944_at) / RFU, VPS4B / Fold change vs veh, VPS4B / RFU, CREB1 / Fold change vs veh, CREB1 / RFU, DNAJC13 / Fold change vs veh, DNAJC13 / RFU, GNAQ / Fold change vs veh, GNAQ / RFU, CDK5R1 / Fold change vs veh, CDK5R1 / RFU, ZRANB3 / Fold change vs veh, ZRANB3 / RFU, CUL4A / Fold change vs veh, CUL4A / RFU, CCNY / Fold change vs veh, CCNY / RFU, UFL1 / Fold change vs veh, UFL1 / RFU, COG3 / Fold change vs veh, COG3 / RFU, DIAPH2 / Fold change vs veh, DIAPH2 / RFU, SKA2 / Fold change vs veh, SKA2 / RFU, AFF3 / Fold change vs veh, AFF3 / RFU, LMF1 / Fold change vs veh, LMF1 / RFU, IPO11 / Fold change vs veh, IPO11 / RFU, DFFB / Fold change vs veh, DFFB / RFU, FOXP1 / Fold change vs veh, FOXP1 / RFU, CARD8 / Fold change vs veh, CARD8 / RFU, STRN3 / Fold change vs veh, STRN3 / RFU, ADK / Fold change vs veh, ADK / RFU, RASSF2 / Fold change vs veh, RASSF2 / RFU, WIPF1 / Fold change vs veh, WIPF1 / RFU, LARP1B / Fold change vs veh, LARP1B / RFU, RASA1 / Fold change vs veh, RASA1 / RFU, RB1 / Fold change vs veh, RB1 / RFU, PPFIA1 / Fold change vs veh, PPFIA1 / RFU, MAT2A / Fold change vs veh, MAT2A / RFU, CCT5 / Fold change vs veh, CCT5 / RFU, WDR92 / Fold change vs veh, WDR92 / RFU, CUX1 / Fold change vs veh, CUX1 / RFU, TTC7A / Fold change vs veh, TTC7A / RFU, TMEM135 / Fold change vs veh, TMEM135 / RFU, DEPTOR / Fold change vs veh, DEPTOR / RFU, CPM / Fold change vs veh, CPM / RFU, DNAJB6 / Fold change vs veh, DNAJB6 / RFU, CACNA2D3 / Fold change vs veh, CACNA2D3 / RFU, DTX4 / Fold change vs veh, DTX4 / RFU, TFCP2 / Fold change vs veh, TFCP2 / RFU, GMCL1 /// GMCL1P1 / Fold change vs veh, GMCL1 /// GMCL1P1 / RFU, AEBP2 / Fold change vs veh, AEBP2 / RFU, SNHG1 /// SNORD22 /// SNORD25 /// SNORD26 /// SNORD27 /// SNORD28 /// SNORD29 /// SNORD31 / Fold change vs veh, SNHG1 /// SNORD22 /// SNORD25 /// SNORD26 /// SNORD27 /// SNORD28 /// SNORD29 /// SNORD31 / Fold change (Aza/veh), C12orf56 (ProbeSet 11735607_a_at) / Fold change (ACY-1035/veh), C12orf56 (ProbeSet 11735607_a_at) / Fold change (Aza/veh), FGFR1OP (ProbeSet 11751329_s_at) / Fold change (ACY-1035/veh), FGFR1OP (ProbeSet 11751329_s_at) / Fold change (Aza/veh), VPS36 (ProbeSet 11739960_a_at) / Fold change (ACY-1035/veh), VPS36 (ProbeSet 11739960_a_at) / RFU SYPL1 (11715823_x_at) / Fold change /veh SYPL1 (11715823_x_at) / RFU IGFBP7 (11715501_s_at) / Fold change /veh IGFBP7 (11715501_s_at) / RFU REEP3 (11722064_at) / Fold change /veh REEP3 (11722064_at) / RFU IGLL1 (11728026_x_at) / Fold change /veh IGLL1 (11728026_x_at): dose or concentration left out as unconfirmed",
  "conditions": "ProbeSet 11723141_at; LIST B",
  "data": [
    {"smiles": "Nc1ccc(-c2cccs2)cc1NC(=O)c1ccc2c(c1)cc(C1CC1)n2CCN1CCOCC1", "note": "[ACY-1035]", "values": [
      {"measurement": "Fold change vs veh, ZBTB11", "result": 0.84}
    ]}
  ]
}
